Assay results from patent US11884687B2, “Boronated multifunctional targeting drug conjugates, their uses and methods for their preparation” (Hovione Scientia Limited, priority 2017, dated 2024).

Assays:
[1] = in vivo; cited from earlier work
4T1 = experiment: MTS cell viability assay (4T1); type: cell-based; settings: Mus musculus, 4T1 cells
[2] = system: MDA-MB-231 human breast cancer cells; experiment: MTS cell viability assay (MDA-MB-231); type: cell-based; settings: folate-receptor-positive MDA-MB-231 cells

SMILES | LD50 [1] [mg/kg] | IC50 (4T1) [nM] | IC50 ([2]; Homo sapiens) [nM] | IC50 [2] [nM]
[Cl-].[Na+] [table salt] | 3000 |  |  | 
COCCOCCOCCOc1ccc2c(c1)C(C)=[N+]1c3ccc(C(=O)NCCN=[N+]=[N-])cc3O[B-]1([C@H](CC(C)C)NC(=O)[C@@H](Cc1ccccc1)NC(=O)c1cnccn1)O2 (stereo partly shown) [B-complex 7] |  | 670 | > 100 | 
CC1=[N+]2c3ccc(C(=O)NCCOCCOCCOCCN=[N+]=[N-])cc3O[B-]2([C@H](CC(C)C)NC(=O)[C@@H](Cc2ccccc2)NC(=O)c2cnccn2)Oc2ccc(OCCOCCOCCOCCN=[N+]=[N-])cc21 (stereo partly shown) [B-complex 9] |  | 7250 | > 100 | 
CC1=[N+]2c3ccc(C(=O)NCCOCCOCCOCCn4nnc5c4CCC4C(CC5)[C@@H]4COC(=O)NCCNC(=O)CC[C@H](NC(=O)c4ccc(NCc5cnc6nc(N)[nH]c(=O)c6n5)cc4)C(=O)O)cc3O[B-]2([C@H](CC(C)C)NC(=O)[C@@H](Cc2ccccc2)NC(=O)c2cnccn2)Oc2ccc(OCCOCCOCCOCCn3nnc4c3CC[C@H]3[C@@H](CC4)[C@H]3COC(=O)NCCNC(=O)CC[C@H](NC(=O)c3ccc(NCc4cnc5nc(N)[nH]c(=O)c5n4)cc3)C(=O)O)cc21 (stereo partly shown) [B-complex 10] |  |  |  | 62
COCCOCCOCCOc1ccc2c(c1)C(C)=[N+]1c3ccc(C(=O)NCCn4nnc5c4CC[C@H]4[C@@H](CC5)[C@H]4COC(=O)NCCNC(=O)CCC(NC(=O)c4ccc(NCc5cnc6nc(N)[nH]c(=O)c6n5)cc4)C(=O)O)cc3O[B-]1([C@H](CC(C)C)NC(=O)[C@@H](Cc1ccccc1)NC(=O)c1cnccn1)O2 (stereo partly shown) [B-complex 8] |  |  |  | 67.5
